{"source": "paper PMC6588697", "about": "“Lugdunin amplifies innate immune responses in the skin in synergy with host- and microbiota-derived factors” (Nature Communications, 2019)", "key": {"S. aureus": {"system": "S. aureus", "test": "Adhesion and invasion assay: S. aureus on pretreated PHKs (CFU)", "format": "cell-based, Staphylococcus aureus", "details": "lugdunin alone; text to Fig 1a", "procedure": "Fig. 1 Lugdunin sensitizes epithelial cells for innate immune defense. a Primary human keratinocytes (PHKs) were pretreated with S. epidermidis conditioned medium (CM), indicated lugdunin concentrations, or the combination of both for 20 h. Subsequently, cells were infected with S. aureus for 1.5 h followed by cell lysis and determination of colony-forming units (CFUs). Shown is one representative experiment of three independent experiments with six technical replicates ± s.e.m. n.s., not significant. b Dorsal skin of mice was pretreated with S. epidermidis CM, 1.5 µg lugdunin alone or in combination with S. epidermidis CM for 24 h. Subsequently, S. aureus CFUs were determined. Horizontal lines represent the mean of each group ± s.e.m. c PHKs were treated with 2 μM lugdunin or with S. epidermidis CM alone or in combination for 20 h and subsequently expression of indicated antimicrobial peptides (AMPs) (respective protein names in brackets) was analyzed and normalized to actin. Shown is one representative experiment of three independent experiments with two technical replicates ± s.e.m. d PHKs were treated with 2 µM lugdunin or 100 ng/mL Pam2Cys for 5 h and subsequently the concentration of indicated cytokines in the supernatant was analyzed by LEGENDplex^TM (BioLegend). […]"}, "PHKs": {"system": "PHKs", "test": "AMP gene expression in PHKs (qRT-PCR, normalized to actin)", "format": "cell-based, human", "details": "20 h, 2 µM lugdunin and/or S. epidermidis CM, medium = 1, two technical replicates, Fig 1c", "procedure": "Fig. 1 Lugdunin sensitizes epithelial cells for innate immune defense. a Primary human keratinocytes (PHKs) were pretreated with S. epidermidis conditioned medium (CM), indicated lugdunin concentrations, or the combination of both for 20 h. Subsequently, cells were infected with S. aureus for 1.5 h followed by cell lysis and determination of colony-forming units (CFUs). Shown is one representative experiment of three independent experiments with six technical replicates ± s.e.m. n.s., not significant. b Dorsal skin of mice was pretreated with S. epidermidis CM, 1.5 µg lugdunin alone or in combination with S. epidermidis CM for 24 h. Subsequently, S. aureus CFUs were determined. Horizontal lines represent the mean of each group ± s.e.m. c PHKs were treated with 2 μM lugdunin or with S. epidermidis CM alone or in combination for 20 h and subsequently expression of indicated antimicrobial peptides (AMPs) (respective protein names in brackets) was analyzed and normalized to actin. Shown is one representative experiment of three independent experiments with two technical replicates ± s.e.m. d PHKs were treated with 2 µM lugdunin or 100 ng/mL Pam2Cys for 5 h and subsequently the concentration of indicated cytokines in the supernatant was analyzed by LEGENDplex^TM (BioLegend). Shown is one representative experiment of three independent experiments with two technical replicates ± s.e.m. e PHKs were treated with increasing concentrations of lugdunin or 100 ng/mL Pam2Cys or Pam3Cys for 5 h and subsequently expression of chemokine (C-X-C motif) ligand 8 (CXCL8) was analyzed and normalized to actin. Shown is one representative experiment of three independent experiments, each with two technical replicates ± s.e.m. f, g Indicated cells were treated with 2 µM lugdunin or 100 ng/mL Pam2Cys as a positive control for 5 h and subsequently the concentration of CXCL8 (f) and interleukin-1α (IL-1α) (g) in the supernatant was analyzed by LEGENDplex^TM (BioLegend) and enzyme-linked immunosorbent assay (ELISA) (R&D Systems). Shown is one representative experiment of three independent experiments with two technical replicates ± s.e.m. Significant differences to control treatments were analyzed by ordinary one-way analysis of variance (ANOVA) followed by Dunnett’s multiple comparisons test (*P < 0.05; **P < 0.01; ***P < 0.001; ****P < 0.0001). n.d. = not detected. Source data are provided as a Source Data file\nAfter 5 h or 20 h of peptide treatment, PHKs were washed once with PBS, followed by the addition of RNA lysis buffer directly into the well. Total RNA was extracted using the Nucleospin RNA Kit (Macherey-Nagel) according to the manufacturer’s protocol. Complementary DNA was synthesized using the Reverse-Transkriptase Kit (Thermo Scientific) with 2 µg of RNA, 4 µL of 5× RT buffer, 0.5 µL Maxima reverse transcriptase ([…]), 1 µL of random hexamer primer (100 µM), dNTP (10 mM), and RNAse-free water to a total volume of 20 µL. After pre-incubation of RNA with water for 10 min at 70 °C, master mix was added and incubated for 10 min at 25 °C, followed by 45 min at 50 °C and a final heat inactivation step for 5 min at 85 °C.\nQuantitative reverse transcription-polymerase chain reaction (qRT-PCR) was performed in 10 µL reaction volume with SYBR^TM Green PCR Master Mix (Thermo Fisher) according to the manufacturer’s instructions using a LightCycler 96 (Roche Life Science). […]\n11 subsequently expression of CAMP (LL-37) was analyzed and normalized to actin. […]"}}, "note": "“And” between values parts separate entries of the source, which are not always exact repeats. Equal values may be shown once.", "data": [{"substance": "Lugdunin", "values": [{"measurement": "lugdunin concentration at which pretreatment of PHKs significantly reduced the number of adhering S. aureus", "setting": "S. aureus", "result": "≥ 2", "unit": "µM"}, {"measurement": "CAMP (LL-37) expression normalized to actin", "setting": "PHKs", "result": "189.36 and 213.04"}, {"measurement": "DEFB1 (HBD-1) expression normalized to actin", "setting": "PHKs", "result": 1.91}, {"measurement": "DEFB4A (HBD-2) expression normalized to actin", "setting": "PHKs", "result": "0.69 and 0.77"}, {"measurement": "DEFB103A (HBD-3) expression normalized to actin", "setting": "PHKs", "result": "1.53 and 1.71"}, {"measurement": "RNASE7 (RNase7) expression normalized to actin", "setting": "PHKs", "result": "2.34 and 2.18"}]}]}
